# Reference: PubChem BioAssay (NCI)
#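 Following 48 hours of exposure in 96-well plates, responses at five concentrations were used to interpolate endpoints linearly. At the TGI there is no net growth.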
# How the values were obtained:
# Experiment in all cases: DTP human tumour cell line panel, 48 h
# SK-OV-3 ovarian = test system: SK-OV-3 ovarian
# SNB-75 CNS = test system: SNB-75 CNS
# HT29 colon = test system: HT29 colon
# CAKI-1 renal = test system: CAKI-1 renal
# HOP-62 NSCLC = test system: HOP-62 NSCLC
# IGROV1 ovarian = test system: IGROV1 ovarian
# EKVX NSCLC = test system: EKVX NSCLC
# SR leukemia = test system: SR leukemia
# MCF7 breast = test system: MCF7 breast
# SN12C renal = test system: SN12C renal
# M14 melanoma = test system: M14 melanoma
# MDA-N = test system: MDA-N
# OVCAR-5 ovarian = test system: OVCAR-5 ovarian
# ACHN renal = test system: ACHN renal
# SF-295 CNS = test system: SF-295 CNS
# A549 NSCLC = test system: A549 NSCLC
# NCI-H522 lung = test system: NCI-H522 lung
# A498 renal = test system: A498 renal
structure (smiles),measurement,setting,value
O=C(Cc1ccccc1)NNc1nc(NNC(=O)c2ccncc2)nc(Nc2ccccc2)n1,TGI,SK-OV-3 ovarian,> 10 µM
same,TGI,SNB-75 CNS,> 10 µM
same,TGI,HT29 colon,> 10 µM
same,TGI,CAKI-1 renal,> 10 µM
same,TGI,HOP-62 NSCLC,> 10 µM
same,TGI,IGROV1 ovarian,> 10 µM
same,TGI,EKVX NSCLC,> 10 µM
same,TGI,SR leukemia,> 10 µM
same,TGI,MCF7 breast,> 10 µM
same,TGI,SN12C renal,> 10 µM
same,TGI,M14 melanoma,> 10 µM
same,TGI,MDA-N,> 10 µM
Nc1ccc(Nc2c3ccccc3nc3ccccc23)cc1,TGI,SK-OV-3 ovarian,> 10 µM
same,TGI,OVCAR-5 ovarian,> 10 µM
same,TGI,ACHN renal,4.58 µM
same,TGI,HT29 colon,> 10 µM
same,TGI,CAKI-1 renal,6.94 µM
same,TGI,SF-295 CNS,> 10 µM
same,TGI,A549 NSCLC,> 10 µM
same,TGI,HOP-62 NSCLC,> 10 µM
same,TGI,IGROV1 ovarian,> 10 µM
same,TGI,EKVX NSCLC,> 10 µM
same,TGI,SR leukemia,> 10 µM
same,TGI,MCF7 breast,> 10 µM
same,TGI,SN12C renal,> 10 µM
same,TGI,NCI-H522 lung,> 10 µM
same,TGI,M14 melanoma,> 10 µM
same,TGI,MDA-N,> 10 µM
COc1ccc(C2CC(=O)CC(c3ccc(OC)cc3)C23C(=O)NC(=S)NC3=O)cc1 (configuration not stated),TGI,OVCAR-5 ovarian,> 100 µM
same,TGI,SNB-75 CNS,> 100 µM
same,TGI,ACHN renal,> 100 µM
same,TGI,HT29 colon,> 100 µM
same,TGI,CAKI-1 renal,> 100 µM
same,TGI,SF-295 CNS,> 100 µM
same,TGI,HOP-62 NSCLC,> 100 µM
same,TGI,IGROV1 ovarian,> 100 µM
same,TGI,EKVX NSCLC,> 100 µM
same,TGI,SR leukemia,> 100 µM
same,TGI,MCF7 breast,> 100 µM
same,TGI,SN12C renal,> 100 µM
same,TGI,NCI-H522 lung,> 100 µM
same,TGI,M14 melanoma,> 100 µM
same,TGI,MDA-N,> 100 µM
O=C(O)Cc1cccc2c1OC(c1ccccc1)C(C(=O)c1ccccc1)C2=O (configuration not stated),TGI,SK-OV-3 ovarian,> 100 µM
same,TGI,OVCAR-5 ovarian,> 100 µM
same,TGI,SNB-75 CNS,51.3 µM
same,TGI,ACHN renal,> 100 µM
same,TGI,CAKI-1 renal,> 100 µM
same,TGI,SF-295 CNS,> 100 µM
same,TGI,A549 NSCLC,> 100 µM
same,TGI,HOP-62 NSCLC,> 100 µM
same,TGI,IGROV1 ovarian,> 100 µM
same,TGI,EKVX NSCLC,> 100 µM
same,TGI,SR leukemia,> 100 µM
same,TGI,MCF7 breast,> 100 µM
same,TGI,SN12C renal,> 100 µM
same,TGI,NCI-H522 lung,> 100 µM
same,TGI,MDA-N,> 100 µM
CCOC(CI)O[C@@H]1C=C[C@H](OC(C)=O)C1 (some centres not stated),TGI,SK-OV-3 ovarian,> 100 µM
same,TGI,OVCAR-5 ovarian,> 100 µM
same,TGI,SNB-75 CNS,> 100 µM
same,TGI,ACHN renal,> 100 µM
same,TGI,HT29 colon,> 100 µM
same,TGI,CAKI-1 renal,> 100 µM
same,TGI,A498 renal,> 100 µM
same,TGI,SF-295 CNS,> 100 µM
same,TGI,A549 NSCLC,> 100 µM
same,TGI,HOP-62 NSCLC,> 100 µM
same,TGI,EKVX NSCLC,> 100 µM
same,TGI,MCF7 breast,> 100 µM
same,TGI,SN12C renal,> 100 µM
same,TGI,M14 melanoma,> 100 µM
same,TGI,MDA-N,> 100 µM
COc1ccc(C2=Nn3c(nc4sc(-c5ccccc5)cc4c3=O)SC2)cc1,TGI,SK-OV-3 ovarian,> 100 µM
same,TGI,OVCAR-5 ovarian,> 100 µM
same,TGI,ACHN renal,> 100 µM
same,TGI,HT29 colon,> 100 µM
same,TGI,CAKI-1 renal,> 100 µM
same,TGI,A498 renal,> 100 µM
same,TGI,SF-295 CNS,> 100 µM
same,TGI,A549 NSCLC,> 100 µM
same,TGI,HOP-62 NSCLC,> 100 µM
same,TGI,IGROV1 ovarian,> 100 µM
same,TGI,EKVX NSCLC,> 100 µM
same,TGI,SR leukemia,> 100 µM
same,TGI,MCF7 breast,> 100 µM
same,TGI,SN12C renal,> 100 µM
same,TGI,NCI-H522 lung,> 100 µM
same,TGI,MDA-N,> 100 µM
NNc1ccccc1Cl,TGI,SK-OV-3 ovarian,> 100 µM
same,TGI,OVCAR-5 ovarian,> 100 µM
same,TGI,SNB-75 CNS,> 100 µM
same,TGI,ACHN renal,> 100 µM
same,TGI,HT29 colon,> 100 µM
same,TGI,CAKI-1 renal,> 100 µM
same,TGI,A498 renal,> 100 µM
same,TGI,SF-295 CNS,> 100 µM
same,TGI,A549 NSCLC,> 100 µM
same,TGI,HOP-62 NSCLC,> 100 µM
same,TGI,IGROV1 ovarian,> 100 µM
same,TGI,EKVX NSCLC,> 100 µM
same,TGI,MCF7 breast,> 100 µM
same,TGI,SN12C renal,> 100 µM
same,TGI,NCI-H522 lung,> 100 µM
same,TGI,M14 melanoma,> 100 µM
same,TGI,MDA-N,> 100 µM
COc1c(C)c(C/C=C(\C)CCCCO)c(OC)c(OC)c1OC,TGI,SK-OV-3 ovarian,> 100 µM
same,TGI,OVCAR-5 ovarian,> 100 µM
same,TGI,SNB-75 CNS,> 100 µM
same,TGI,ACHN renal,> 100 µM
same,TGI,HT29 colon,> 100 µM
same,TGI,SF-295 CNS,> 100 µM
same,TGI,A549 NSCLC,69.6 µM
same,TGI,HOP-62 NSCLC,> 100 µM
same,TGI,IGROV1 ovarian,> 100 µM
same,TGI,EKVX NSCLC,> 100 µM
same,TGI,SR leukemia,> 100 µM
same,TGI,MCF7 breast,> 100 µM
same,TGI,SN12C renal,> 100 µM
same,TGI,NCI-H522 lung,> 100 µM
same,TGI,M14 melanoma,> 100 µM
same,TGI,MDA-N,> 100 µM
C[C@]12CC[C@H](O)C=C1CC[C@@H]1[C@@H]2CC[C@]2(C)C(=N/O)/C(=C/c3ccncc3)C[C@@H]12,TGI,SK-OV-3 ovarian,34.9 µM
same,TGI,OVCAR-5 ovarian,43.8 µM
same,TGI,SNB-75 CNS,43.8 µM
same,TGI,ACHN renal,23.8 µM
same,TGI,HT29 colon,18.9 µM
same,TGI,CAKI-1 renal,> 100 µM
same,TGI,SF-295 CNS,39.5 µM
same,TGI,A549 NSCLC,29.8 µM
same,TGI,HOP-62 NSCLC,30.9 µM
same,TGI,IGROV1 ovarian,81.6 µM
same,TGI,EKVX NSCLC,> 100 µM
same,TGI,SR leukemia,16.2 µM
same,TGI,MCF7 breast,16.7 µM
same,TGI,SN12C renal,32.8 µM
same,TGI,NCI-H522 lung,33.3 µM
same,TGI,M14 melanoma,24.6 µM
same,TGI,MDA-N,44 µM
CC(C)=C[C@@H]1C[C@H](C)c2c(O)cc(C)c3c2C1=C(C)C(=O)C3=O,TGI,SK-OV-3 ovarian,30.9 µM
same,TGI,OVCAR-5 ovarian,62.2 µM
same,TGI,SNB-75 CNS,31.4 µM
same,TGI,ACHN renal,34.3 µM
same,TGI,HT29 colon,40.6 µM
same,TGI,CAKI-1 renal,30.2 µM
same,TGI,A498 renal,37.4 µM
same,TGI,SF-295 CNS,30.4 µM
same,TGI,A549 NSCLC,21.7 µM
same,TGI,HOP-62 NSCLC,35.8 µM
same,TGI,IGROV1 ovarian,35.2 µM
same,TGI,EKVX NSCLC,33 µM
same,TGI,MCF7 breast,65.8 µM
same,TGI,SN12C renal,28.3 µM
same,TGI,NCI-H522 lung,28.8 µM
same,TGI,M14 melanoma,27 µM
same,TGI,MDA-N,33.7 µM
CC1(c2nc3ccccc3[nH]2)CCC(C(N)=O)C(C)(C)O1 (configuration not stated),TGI,SK-OV-3 ovarian,> 100 µM
same,TGI,OVCAR-5 ovarian,> 100 µM
same,TGI,SNB-75 CNS,> 100 µM
same,TGI,ACHN renal,> 100 µM
same,TGI,HT29 colon,> 100 µM
same,TGI,CAKI-1 renal,> 100 µM
same,TGI,SF-295 CNS,> 100 µM
same,TGI,A549 NSCLC,> 100 µM
same,TGI,HOP-62 NSCLC,> 100 µM
same,TGI,IGROV1 ovarian,> 100 µM
same,TGI,EKVX NSCLC,> 100 µM
same,TGI,SR leukemia,> 100 µM
same,TGI,MCF7 breast,> 100 µM
same,TGI,SN12C renal,> 100 µM
same,TGI,NCI-H522 lung,> 100 µM
same,TGI,M14 melanoma,> 100 µM
same,TGI,MDA-N,> 100 µM
O=C1C[C@@H](Sc2ccccc2)C2(OCCO2)[C@H]2ON3CCC[C@@H]3[C@@H]12,TGI,SK-OV-3 ovarian,27.9 µM
same,TGI,ACHN renal,15.2 µM
same,TGI,HT29 colon,2.86 µM
same,TGI,CAKI-1 renal,15.9 µM
same,TGI,A498 renal,30.5 µM
same,TGI,SF-295 CNS,26.7 µM
same,TGI,A549 NSCLC,26.3 µM
same,TGI,HOP-62 NSCLC,13.8 µM
same,TGI,IGROV1 ovarian,4.87 µM
same,TGI,SR leukemia,10.4 µM
same,TGI,MCF7 breast,17.2 µM
same,TGI,SN12C renal,7.52 µM
same,TGI,M14 melanoma,4.58 µM
same,TGI,MDA-N,6.97 µM
